Laboratory results taken from US9751853B2, “Solid forms of 3-(5-amino-2-methyl-4-oxo-4H-quinazolin-3-yl)-piperidine-2,6-dione, and their pharmaceutical compositions and uses” (Celgene Corporation, priority 2011, dated 2017).

What was measured:
[1] = Dynamic Vapor Sorption (moisture sorption); format: physicochemical; settings: 95% RH, room temperature
Description: Dynamic Vapor Sorption (DVS): Hygroscopicity was determined on a Surface Measurement Systems DVS. Typically, a sample of about 2-10 mg was loaded into the DVS instrument sample pan. The sample was analyzed on a DVS automated sorption analyzer at room temperature. The relative humidity was increased from 0 to 95% RH at 10% RH step, then at 95% RH. The relative humidity was then decreased in a similar manner to accomplish a full adsorption/desorption cycle.

[2] = Grinding studies, solid form by XRPD; format: physicochemical
Description: Grinding Studies: Grinding experiments were performed using a Wig-L-Bug shaker. About 50 mg of Compound A hydrochloride was added to a polystyrene tube (1″×½″) with a Plexi bead (⅜″). The vial was capped and placed on the shaker for about 50 s. For wet grinding, drops of water were added to the vial and a wet paste was formed prior to placing on the shaker.
X-ray Powder Diffraction (XRPD): XRPD analysis was conducted on a Thermo ARL X'TRA™ X-ray powder diffractometer using Cu Kα radiation at 1.54 Å. The instrument was equipped with a fine focus X-ray tube. The voltage and amperage of X-ray generator were set at 45 kV and 40 mA, respectively. The divergence slices were set at 4 mm and 2 mm and the measuring slices were set at 0.5 mm and 0.2 mm. Diffracted radiation was detected by a peltier-cooled Si(Li) solid-state detector. A theta-two theta continuous scan at 2.40°/min (0.5 sec/0.02° step) from 1.5°2θ to 40°2θ was used. A sintered alumina standard was used to check the peak position. In general, positions of XRPD peaks are expected to individually vary on a measurement-by-measurement basis by about +0.2°2θ. In general, as understood in the art, two XRPD patterns match one another if the characteristic peaks of the first pattern are located at approximately the same positions as the characteristic peaks of the second pattern. As understood in the art, determining whether two XRPD patterns match or whether individual peaks in two XRPD patterns match may require consideration of individual variables and parameters such as, but not limited to, preferred orientation, phase impurities, degree of crystallinity, particle size, variation in diffractometer instrument setup, variation in XRPD data collection parameters, and/or variation in XRPD data processing, among others. The determination of whether two patterns match may be performed by eye and/or by computer analysis.

Q: Which “Moisture Sorption at 95% RH” value [1] does the source give for `Cc1nc2cccc(N)c2c(=O)n1C1CCC(=O)NC1=O` (stereo not shown) [Compound A, 3-(5-amino-2-methyl-4-oxo-4H-quinazolin-3-yl)-piperidine-2,6-dione] here?
A: 3.19 wt %

Q: With `Cc1nc2cccc(N)c2c(=O)n1C1CCC(=O)NC1=O` (stereo not shown) [Form E, 3-(5-amino-2-methyl-4-oxo-4H-quinazolin-3-yl)-piperidine-2,6-dione] as the compound, how does the “Moisture Sorption at 95% RH” value ([1]; listed as E) read?
A: 0.26 wt %

Q: Which “Moisture Sorption at 95% RH” value ([1]; listed as C) does the source give for `Cc1nc2cccc(N)c2c(=O)n1C1CCC(=O)NC1=O` (stereo not shown) [Form C, 3-(5-amino-2-methyl-4-oxo-4H-quinazolin-3-yl)-piperidine-2,6-dione] here?
A: 0.17 wt %

Q: For `Cc1nc2cccc(N)c2c(=O)n1C1CCC(=O)NC1=O` (stereo not shown) [Form D, 3-(5-amino-2-methyl-4-oxo-4H-quinazolin-3-yl)-piperidine-2,6-dione], which “Moisture Sorption at 95% RH” value ([1]; listed as D) is on record?
A: 4.11 wt %

Q: For `Cc1nc2cccc(N)c2c(=O)n1C1CCC(=O)NC1=O` (stereo not shown) [Form B, 3-(5-amino-2-methyl-4-oxo-4H-quinazolin-3-yl)-piperidine-2,6-dione], which “Moisture Sorption at 95% RH” value ([1]; listed as B) is on record?
A: 0.11 wt %

Q: What does the source list for `Cc1nc2cccc(N)c2c(=O)n1C1CCC(=O)NC1=O` (stereo not shown) [Form A, 3-(5-amino-2-methyl-4-oxo-4H-quinazolin-3-yl)-piperidine-2,6-dione]?
A: XRPD Result after grinding ([2]; Dry grinding): Form A1; XRPD Result after grinding ([2]; Wet grinding (paste)): Form A1
